What all share (format): functional
The subject of assay [1] is Candida albicans. The experiment in a line: Antifungal activity against Candida albicans assessed as diameter of zone inhibition by disc diffusion method.
Assay [2] has as its system Aspergillus niger. Nature of the assay: Antifungal activity against Aspergillus niger assessed as zone of inhibition by disc diffusion method. In general terms: A growth-free zone around the sample is the usual read-out of agar diffusion tests.
In a further assay the test system is Candida tropicalis. The experiment in a line: Antifungal activity against Candida tropicalis assessed as inhibition of fungal growth.
The test system of assay [3] is Aspergillus niger. The experiment in a line: Antifungal activity against Aspergillus niger assessed as inhibition of fungal growth.
The test system of assay [4] is Candida albicans. Nature of the assay: Antifungal activity against Candida albicans.
Assay [5] concerns Candida albicans. The experiment in a line: Antifungal activity against Candida albicans assessed as zone of inhibition by disc diffusion method.
The next assay relates to Saccharomyces cerevisiae. The experiment in a line: Antimicrobial activity against Saccharomyces cerevisiae assessed as zone of inhibition by disc diffusion method.

Usually MIC stands for the lowest concentration found to suppress growth.

In brackets after ≈: the same amount, converted by molar mass.

On to `COC(=O)c1c(C(=O)OC)c2cccnn2c1C(=O)c1ccc(C)cc1`, for which, in the assay with Candida albicans [1], the “inhibition zone (IZ)” value was 18 mm.

For `CCOC(=O)c1cc(C(=O)c2ccc(C)cc2)n2ncccc12`, the “inhibition zone (IZ)” value with Candida albicans [1] was 18 mm. On the same count and under the same terms, then `CC1=CC2C(C#N)CC(C(=O)c3ccc(Br)cc3)N2C=N1` (stereo unspecified), with 22 mm. On the same count and under the same terms, then `CCOC(=O)c1cc(C(=O)c2ccc(C)cc2)n2nc(C)c3ccccc3c12`, with 18 mm. For `COc1ccc(C2c3c([nH]c(=O)[nH]c3=O)OC3N=CN(c4cc(C)ccn4)C(=N)C32)cc1` (stereo unspecified), the “inhibition zone (IZ)” value with Aspergillus niger [2] is 10 mm. Turning to `CCOC(=O)c1c(C(=O)OCC)c2cc(C)ncn2c1C(=O)c1ccc(Br)cc1`, the “inhibition zone (IZ)” value with Candida albicans [1] was 22 mm. Take `Nc1nc(-c2ccccn2)cc(-c2cnc(Cl)cn2)n1`: the minimal inhibitory concentration (MIC) in the assay with Candida tropicalis and with Aspergillus niger [3] was 110 µM (≈ 31.4 µg/mL) each time. As to `Nc1nc(-c2ccc([N+](=O)[O-])cc2)cc(-c2cnc(Cl)cn2)n1`, the MIC in the assay on Candida tropicalis and with Aspergillus niger [3] was 97.3 µM (≈ 32 µg/mL) in each case. `CCOC(=O)c1c(C(=O)OCC)c2cc(C)ncn2c1C(=O)c1ccc([N+](=O)[O-])cc1`: the “inhibition zone (IZ)” value with Candida albicans [1] was 28 mm. Same read-out and setting: the result for `CC1=NN2C(C(=O)c3ccc(C)cc3)CC(C#N)C2c2ccccc21` (stereo unspecified) reads 18 mm. In the assay on Candida albicans [4], `Cl.FC(F)(F)c1nnc2n1CCNC2` displayed an MIC of 250 µg/mL.

Consider `COc1ccc(C2c3c([nH]c(=O)[nH]c3=O)OC3N=CN(C(N)=O)C(=N)C32)cc1` (stereo unspecified), for which, in the assay with Aspergillus niger [2], the “inhibition zone (IZ)” value worked out at 10 mm. Still for that read-out and setting: then `CC1=NN(c2ccccc2)C2N=C3SCCN3C(c3ccccc3[N+](=O)[O-])C12` (stereo unspecified), with 24 mm; and `O=c1c(C(O)c2ccccc2)c2sc(S)c(-c3ccccc3)n2c2nc(-c3ccccc3)c(-c3ccccc3)n12` (stereo unspecified), with 15 mm. Consider `COC(=O)c1c(C(=O)OC)c2c3ccccc3cnn2c1C(=O)c1ccc(C)cc1`, for which, in the assay with Candida albicans [1], the “inhibition zone (IZ)” value worked out at 18 mm. Regarding `CN(C)c1ccc(/C=N/c2c(N)n(Cc3ccccc3)c(=O)[nH]c2=O)cc1`, in the assay on Candida albicans [5], the “inhibition zone (IZ)” value is listed as 10 mm. `COc1cc(-c2cc(-c3cnc(Cl)cn3)nc(N)n2)ccc1O`: the MIC in the assay with Candida tropicalis and with Aspergillus niger [3] was 107 µM (≈ 35.2 µg/mL) throughout.

As to `Nc1nc(-c2cnc(Cl)cn2)cc(-c2ccc[nH]2)n1`, the MIC with Candida tropicalis and with Aspergillus niger [3] was 110 µM (≈ 30.1 µg/mL) in each case.

As for `Nc1nc(-c2cnc(Cl)cn2)cc(-c2ccc(F)cc2F)n1`, the MIC in the assay with Candida tropicalis and in the assay with Aspergillus niger [3] was 50 µM (≈ 16 µg/mL) each time. `Cc1ccc(C2c3c([nH]c(=O)[nH]c3=O)OC(NC(=O)/C=C/C(=O)O)C2C#N)cc1` (stereo unspecified): the “inhibition zone (IZ)” value in the assay on Aspergillus niger [2] is reported as 10 mm. Turning to `Nc1nc(-c2cnc(Cl)cn2)cc(-c2ccc(Cl)cc2Cl)n1`, the MIC with Candida tropicalis and in the assay with Aspergillus niger [3] was 45.4 µM (≈ 16 µg/mL) throughout. With `CC1=NN(c2ccccc2)C2N=C3SCCN3C(c3cccc(Cl)c3)C12` (stereo unspecified), the “inhibition zone (IZ)” value in the assay on Aspergillus niger [2] came to 24 mm. On to `CC1=NN(c2ccccc2)C2N=C3SCCN3C(c3ccc(F)cc3)C12` (stereo unspecified), for which the “inhibition zone (IZ)” value in the assay with Aspergillus niger [2] worked out at 24 mm. With `Nc1nc(-c2cnc(Cl)cn2)cc(-c2cccs2)n1`, the MIC in the assay with Candida tropicalis and with Aspergillus niger [3] was 110 µM (≈ 32 µg/mL) each time. Turning to `CC1=CC2C(C#N)CC(C(=O)c3ccc([N+](=O)[O-])cc3)N2C=N1` (stereo unspecified), the “inhibition zone (IZ)” value in the assay on Candida albicans [1] is 24 mm. On the same count and under the same terms, the result for `COC(=O)c1c(C(=O)OC)c2c3ccccc3c(C)nn2c1C(=O)c1ccc(C)cc1` reads 18 mm; that for `CC1=NN2C(C(=O)c3ccc(C)cc3)C3C(=O)N(c4ccccc4)C(=O)C3C2c2ccccc21` (stereo unspecified), 18 mm. Take `Nc1nc(-c2ccc(Cl)cc2)cc(-c2cnc(Cl)cn2)n1`: the MIC in the assay on Candida tropicalis and with Aspergillus niger [3] was 97.3 µM (≈ 31 µg/mL) each time. `COc1ccc(C2c3c([nH]c(=O)[nH]c3=O)OC3N=CN(c4ccccc4N)C(=N)C32)cc1` (stereo unspecified): the “inhibition zone (IZ)” value in the assay with Aspergillus niger [2] is on record as 10 mm. Take `O=C(CN1CCn2c(nnc2C(F)(F)F)C1)Nc1nc2ccccc2s1`: the MIC in the assay with Candida albicans [4] came out at 250 µg/mL (≈ 654 µM). Consider `Cc1ccc(C(=O)C2C3C(=O)N(c4ccccc4)C(=O)C3C3c4ccccc4C=NN23)cc1` (stereo unspecified), for which the “inhibition zone (IZ)” value in the assay on Candida albicans [1] was 18 mm. Consider `O=c1cc[nH]c(=O)n1N=C1CC(c2ccc(Cl)cc2)SC(c2ccc(Cl)cc2)C1` (stereo unspecified), for which the MIC in the assay on Candida albicans [4] worked out at 0.25 µg/mL (≈ 0.56 µM). Consider `Cc1ccc(C(=O)C2CC(C#N)C3c4ccccc4C=NN23)cc1` (stereo unspecified), for which the “inhibition zone (IZ)” value in the assay with Candida albicans [1] came out at 18 mm.

For `Cc1ccc(-c2cc(-c3cnc(Cl)cn3)nc(N)n2)cc1`, the MIC with Candida tropicalis and in the assay with Aspergillus niger [3] was 97.3 µM (≈ 29 µg/mL) throughout. For `CCOC(=O)c1c(C(=O)OCC)c2cc(C)ncn2c1C(=O)c1ccc(OC)cc1`, the “inhibition zone (IZ)” value with Candida albicans [1] is recorded as 24 mm.

On to `Nc1nc(-c2ccncc2)cc(-c2cnc(Cl)cn2)n1`, for which the minimum inhibitory concentration (MIC) in the assay on Candida tropicalis and in the assay with Aspergillus niger [3] was 110 µM (≈ 31.4 µg/mL) in each case. `Cc1ccc(C2c3c([nH]c(=O)[nH]c3=O)OC(N)C2C#N)cc1` (stereo unspecified): the “inhibition zone (IZ)” value in the assay on Aspergillus niger [2] turned out to be 10 mm. With `Nc1nc(-c2ccc(F)cc2)cc(-c2cnc(Cl)cn2)n1`, the MIC in the assay with Candida tropicalis and in the assay with Aspergillus niger [3] was 97.3 µM (≈ 29.4 µg/mL) in each case.

For `Cc1ccc(C(=O)C2C3C(=O)N(c4ccccc4)C(=O)C3C3C=CC=NN32)cc1` (stereo unspecified), the “inhibition zone (IZ)” value in the assay on Candida albicans [1] was 18 mm. Take `O=c1c(C(O)c2ccccc2)c(SCc2ccccc2)[nH]c2nc(-c3ccccc3)c(-c3ccccc3)n12` (stereo unspecified): the “inhibition zone (IZ)” value in the assay on Aspergillus niger [2] is 15 mm. In the case of `CN(C)c1ccc(-c2cc(-c3cnc(Cl)cn3)nc(N)n2)cc1`, the MIC in the assay on Candida tropicalis and in the assay on Aspergillus niger [3] was 97.3 µM (≈ 31.8 µg/mL) each time. On to `Nc1nc(-c2ccc(O)cc2)cc(-c2cnc(Cl)cn2)n1`, for which the MIC in the assay with Candida tropicalis and with Aspergillus niger [3] was 97.3 µM (≈ 29.2 µg/mL) each time. For `Cc1ccc(C(=O)C2CC(C#N)C3C=CC=NN23)cc1` (stereo unspecified), the “inhibition zone (IZ)” value in the assay with Candida albicans [1] was 18 mm. In the case of `COc1ccc(-c2cc(-c3cnc(Cl)cn3)nc(N)n2)c(OC)c1`, the MIC in the assay on Candida tropicalis and in the assay with Aspergillus niger [3] was 101 µM (≈ 34.6 µg/mL) in each case. Regarding `CCOC(=O)c1cc(C(=O)c2ccc(C)cc2)n2ncc3ccccc3c12`, the “inhibition zone (IZ)” value in the assay with Candida albicans [1] was determined as 18 mm.

For `COc1ccc(-c2cc(-c3cnc(Cl)cn3)nc(N)n2)cc1`, the MIC with Candida tropicalis and in the assay on Aspergillus niger [3] was 97.3 µM (≈ 30.5 µg/mL) throughout. For `CC1=NN(c2ccccc2)C2N=C3SCCN3C(c3ccccc3O)C12` (stereo unspecified), the “inhibition zone (IZ)” value with Aspergillus niger [2] is reported as 24 mm. Consider `COc1ccc(C(=O)C2CC(C#N)C3C=C(C)N=CN23)cc1` (stereo unspecified), for which the “inhibition zone (IZ)” value in the assay on Candida albicans [1] came out at 23 mm. With `CC1=NN(c2ccccc2)C2N=C3SCCN3C(c3cccc([N+](=O)[O-])c3)C12` (stereo unspecified), in the assay with Aspergillus niger [2], the “inhibition zone (IZ)” value turned out to be 24 mm. `Nc1nc(-c2cccnc2)cc(-c2cnc(Cl)cn2)n1`: the MIC in the assay with Candida tropicalis and with Aspergillus niger [3] was 110 µM (≈ 31.4 µg/mL) throughout.

As for `COc1ccc(C2c3c([nH]c(=O)[nH]c3=O)OC3N=CN(C(=S)Nc4ccccc4)C(=N)C32)cc1` (stereo unspecified), in the assay on Aspergillus niger [2], the “inhibition zone (IZ)” value turned out to be 10 mm. The same measure, in the same setting: the result for `CCC(C)N1C=NC2Oc3[nH]c(=O)[nH]c(=O)c3C(c3ccc(OC)cc3)C2C1=N` (stereo unspecified) reads 10 mm. In the case of `Nc1nc(-c2ccccc2)cc(-c2cnc(Cl)cn2)n1`, the MIC with Candida tropicalis and in the assay with Aspergillus niger [3] was 97.3 µM (≈ 27.6 µg/mL) throughout. On to `CC1=N/C(=C\c2ccc(Cl)cc2)C(=O)N1c1c(N)n(C)c(=O)n(C)c1=O`, for which the “inhibition zone (IZ)” value with Candida albicans [5] was 10 mm. Regarding `Nc1nc(Cc2ccco2)cc(-c2cnc(Cl)cn2)n1`, the MIC in the assay on Candida tropicalis and in the assay on Aspergillus niger [3] was 110 µM (≈ 31.8 µg/mL) throughout. As for `O=[N+]([O-])c1ccccc1/C=N/c1ncnc2[nH]ccc12`, the “inhibition zone (IZ)” value in the assay with Saccharomyces cerevisiae turned out to be 13 mm. Regarding `CC1=NN(c2ccccc2)C2N=C3SCCN3C(c3ccccc3Cl)C12` (stereo unspecified), the “inhibition zone (IZ)” value with Aspergillus niger [2] is reported as 24 mm. In the case of `CN(C)C=O` [DIMETHYLFORMAMIDE], the “inhibition zone (IZ)” value with Candida albicans [1] was 16 mm.

The values above are taken from ChEMBL document CHEMBL6103565, “Current strategies in design and synthesis of antifungals hybrid and chimeric diazine derivatives” (Bioorg Med Chem, 2025).
